This note sets out measurements from ChEMBL document CHEMBL5537128, “Discovery of LWY713 as a potent and selective FLT3 PROTAC degrader with in vivo activity against acute myeloid leukemia” (Eur J Med Chem, 2024).

Each structure is given as a SMILES string.

The target of this assay is Protein cereblon/Receptor-type tyrosine-protein kinase FLT3 (Homo sapiens, UniProt P36888+Q96SW2). The assay is described as follows: PROTAC activity at CRBN/FLT3 in human MV4-11 cells harboring FLT3-ITD mutation assessed as induction of FLT3 degradation at 10 nM incubated for 24 hrs by immunoblotting analysis relative to control. It is filed as cell-based. For orientation: In western blotting, separated proteins are transferred to a membrane and probed.
Sequence of Protein cereblon/Receptor-type tyrosine-protein kinase FLT3 (P36888 27-993 limits assumed): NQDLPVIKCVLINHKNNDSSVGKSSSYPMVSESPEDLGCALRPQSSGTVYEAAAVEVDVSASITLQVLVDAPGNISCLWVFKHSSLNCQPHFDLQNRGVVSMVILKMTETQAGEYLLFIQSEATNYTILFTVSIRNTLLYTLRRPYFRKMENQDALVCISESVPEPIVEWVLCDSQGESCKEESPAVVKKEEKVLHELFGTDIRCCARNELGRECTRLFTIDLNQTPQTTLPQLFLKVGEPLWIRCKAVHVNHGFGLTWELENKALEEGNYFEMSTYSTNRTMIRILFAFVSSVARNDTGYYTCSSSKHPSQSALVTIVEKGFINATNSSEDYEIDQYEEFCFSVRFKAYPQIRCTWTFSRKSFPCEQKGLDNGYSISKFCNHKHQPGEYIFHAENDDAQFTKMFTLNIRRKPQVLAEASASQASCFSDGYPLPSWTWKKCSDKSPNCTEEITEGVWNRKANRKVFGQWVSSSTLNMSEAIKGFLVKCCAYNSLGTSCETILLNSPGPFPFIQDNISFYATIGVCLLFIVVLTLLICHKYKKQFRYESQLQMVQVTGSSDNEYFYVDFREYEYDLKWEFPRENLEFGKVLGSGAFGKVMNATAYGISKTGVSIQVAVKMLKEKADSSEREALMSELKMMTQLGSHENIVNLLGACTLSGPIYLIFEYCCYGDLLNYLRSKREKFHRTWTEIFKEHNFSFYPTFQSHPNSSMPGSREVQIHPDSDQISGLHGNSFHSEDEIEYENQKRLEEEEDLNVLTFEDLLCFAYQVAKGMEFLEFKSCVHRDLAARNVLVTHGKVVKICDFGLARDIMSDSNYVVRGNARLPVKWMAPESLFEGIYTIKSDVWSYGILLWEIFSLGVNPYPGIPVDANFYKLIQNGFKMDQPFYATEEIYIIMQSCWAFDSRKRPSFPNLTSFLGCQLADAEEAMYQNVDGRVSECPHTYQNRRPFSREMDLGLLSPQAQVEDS
Sequence of Protein cereblon/Receptor-type tyrosine-protein kinase FLT3 (Q96SW2 whole entry partner): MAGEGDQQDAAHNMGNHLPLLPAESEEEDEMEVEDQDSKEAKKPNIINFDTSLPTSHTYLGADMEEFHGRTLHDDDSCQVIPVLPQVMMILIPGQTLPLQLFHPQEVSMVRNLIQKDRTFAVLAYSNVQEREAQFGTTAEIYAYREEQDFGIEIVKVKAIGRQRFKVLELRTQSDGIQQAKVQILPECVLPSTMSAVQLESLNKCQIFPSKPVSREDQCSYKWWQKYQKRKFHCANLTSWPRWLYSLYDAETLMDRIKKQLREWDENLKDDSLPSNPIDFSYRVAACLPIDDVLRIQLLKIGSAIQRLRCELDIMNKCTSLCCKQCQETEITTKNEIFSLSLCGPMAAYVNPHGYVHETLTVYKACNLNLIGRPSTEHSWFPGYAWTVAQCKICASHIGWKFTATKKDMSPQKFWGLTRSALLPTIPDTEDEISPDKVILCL
`CCc1nc(C(N)=O)c(Nc2ccc(N3CCC(N4CCN(C(=O)CCCCCOc5ccc6c(c5)C(=O)N(C5CCC(=O)NC5=O)C6=O)CC4)CC3)c(OC)c2)nc1NC1CCOCC1` (centres undefined): the Activity turned out to be 32%.
For the compound `CCc1nc(C(N)=O)c(Nc2ccc(N3CCC(N4CCN(C(=O)CCCOc5cccc6c5C(=O)N(C5CCC(=O)NC5=O)C6=O)CC4)CC3)c(OC)c2)nc1NC1CCOCC1` (centres undefined), the Activity worked out at 30%.
As to `CCc1nc(C(N)=O)c(Nc2ccc(N3CCC(N4CCN(C(=O)CCCCCCCCCNc5cccc6c5C(=O)N(C5CCC(=O)NC5=O)C6=O)CC4)CC3)c(OC)c2)nc1NC1CCOCC1` (centres undefined), the Activity worked out at 0%.
Consider `CCc1nc(C(N)=O)c(Nc2ccc(N3CCC(N4CCN(C(=O)CCCCCCCCCOc5ccc6c(c5)C(=O)N(C5CCC(=O)NC5=O)C6=O)CC4)CC3)c(OC)c2)nc1NC1CCOCC1` (centres undefined), for which the Activity stood at 0%.
On to `CCc1nc(C(N)=O)c(Nc2ccc(N3CCC(N4CCN(C(=O)CCCCCCCCCNc5ccc6c(c5)C(=O)N(C5CCC(=O)NC5=O)C6=O)CC4)CC3)c(OC)c2)nc1NC1CCOCC1` (centres undefined), for which the Activity was 0%.
As for `CCc1nc(C(N)=O)c(Nc2ccc(N3CCC(N4CCN(C(=O)COc5ccc6c(c5)C(=O)N(C5CCC(=O)NC5=O)C6=O)CC4)CC3)c(OC)c2)nc1NC1CCOCC1` (centres undefined), the Activity was 0%.
`CCc1nc(C(N)=O)c(Nc2ccc(N3CCC(N4CCN(C(=O)CCCCCCCNc5cccc6c5C(=O)N(C5CCC(=O)NC5=O)C6=O)CC4)CC3)c(OC)c2)nc1NC1CCOCC1` (centres undefined): the Activity turned out to be 50%.
Consider `CCc1nc(C(N)=O)c(Nc2ccc(N3CCC(N4CCN(C(=O)CCCCCCCNc5ccc6c(c5)C(=O)N(C5CCC(=O)NC5=O)C6=O)CC4)CC3)c(OC)c2)nc1NC1CCOCC1` (centres undefined), for which the Activity came to 40%.
The same measure for `CCc1nc(C(N)=O)c(Nc2ccc(N3CCC(N4CCN(C(=O)CCCCCCCCCOc5cccc6c5C(=O)N(C5CCC(=O)NC5=O)C6=O)CC4)CC3)c(OC)c2)nc1NC1CCOCC1` (centres undefined): 0%; for `CCc1nc(C(N)=O)c(Nc2ccc(N3CCC(N4CCN(C(=O)CCCOc5ccc6c(c5)C(=O)N(C5CCC(=O)NC5=O)C6=O)CC4)CC3)c(OC)c2)nc1NC1CCOCC1` (centres undefined): 0%; for `CCc1nc(C(N)=O)c(Nc2ccc(N3CCC(N4CCN(C(=O)CNc5ccc6c(c5)C(=O)N(C5CCC(=O)NC5=O)C6=O)CC4)CC3)c(OC)c2)nc1NC1CCOCC1` (centres undefined): 52%.
With `CCc1nc(C(N)=O)c(Nc2ccc(N3CCC(N4CCN(c5cccc6c5C(=O)N(C5CCC(=O)NC5=O)C6=O)CC4)CC3)c(OC)c2)nc1NC1CCOCC1` (centres undefined), the Activity worked out at 0%.
With `CCc1nc(C(N)=O)c(Nc2ccc(N3CCC(N4CCN(C(=O)CCCCCOc5cccc6c5C(=O)N(C5CCC(=O)NC5=O)C6=O)CC4)CC3)c(OC)c2)nc1NC1CCOCC1` (centres undefined), the Activity is 36%.
On to `CCc1nc(C(N)=O)c(Nc2ccc(N3CCC(N4CCN(c5ccc6c(c5)C(=O)N(C5CCC(=O)NC5=O)C6=O)CC4)CC3)c(OC)c2)nc1NC1CCOCC1` (centres undefined), for which the Activity is 0%.
As to `CCc1nc(C(N)=O)c(Nc2ccc(N3CCC(N4CCN(C(=O)CCCCCCCOc5cccc6c5C(=O)N(C5CCC(=O)NC5=O)C6=O)CC4)CC3)c(OC)c2)nc1NC1CCOCC1` (centres undefined), the Activity came out at 29%.
For the compound `CCc1nc(C(N)=O)c(Nc2ccc(N3CCC(N4CCN(C(=O)CCCCCCCOc5ccc6c(c5)C(=O)N(C5CCC(=O)NC5=O)C6=O)CC4)CC3)c(OC)c2)nc1NC1CCOCC1` (centres undefined), the Activity is 6%.
For `CCc1nc(C(N)=O)c(Nc2ccc(N3CCC(N4CCN(C(=O)CCCNc5ccc6c(c5)C(=O)N(C5CCC(=O)NC5=O)C6=O)CC4)CC3)c(OC)c2)nc1NC1CCOCC1` (centres undefined), the Activity amounted to 9%.
`CCc1nc(C(N)=O)c(Nc2ccc(N3CCC(N4CCN(C(=O)CCCNc5cccc6c5C(=O)N(C5CCC(=O)NC5=O)C6=O)CC4)CC3)c(OC)c2)nc1NC1CCOCC1` (centres undefined): the Activity is 34%.
As for `CCc1nc(C(N)=O)c(Nc2ccc(N3CCC(N4CCN(C(=O)CCCCCNc5ccc6c(c5)C(=O)N(C5CCC(=O)NC5=O)C6=O)CC4)CC3)c(OC)c2)nc1NC1CCOCC1` (centres undefined), the Activity came to 52%.
